Laboratory results published in patent US20230041621A1, “SSTR5 ANTAGONISTS” (Kallyope, Inc., priority 2019, published 2023).

Test: Oral bioavailability after oral dosing in rat
Details: in vivo, Sprague Dawley rats, IV 1 mg/kg, PO 5 mg/kg, IV vehicle 5% DMSO + 30% PEG400 + 65% water, PO vehicle 0.5% methyl cellulose in water
Description: Oral bioavailability of the compounds was determined in Sprague Dawley rats. The table below summarizes the results. Each compound was dosed intravenously (IV) at 1 mg/kg and orally (PO) 5 mg/kg using the respective vehicles listed below. The compounds display low (<10%) oral bioavailability (F %).

| Structure (SMILES) | bioavailability [%] |
| --- | --- |
| CCOc1cc(-c2ccc(F)cn2)c(C2CC2)cc1CN1CCC2(CC1)CN(c1ccc(S(=O)(=O)O)cc1)C(=O)O2 [Compound 3, 4-(8-(5-cyclopropyl-2-ethoxy-4-(5-fluoropyridin-2-yl)benzyl)-2-oxo-1-oxa-3,8-diazaspiro[4.5]decan-3-yl)benzenesulfonic acid] | 1.2 |
| CCOc1cc(-c2ccc(F)cc2)c(C2CC2)cc1CN1CCC2(CC1)CN(c1ccc(S(=O)(=O)O)cc1)C(=O)O2 [Compound 1, 4-(8-((2-cyclopropyl-5-ethoxy-4′-fluoro-[1,1′-biphenyl]-4-yl)methyl)-2-oxo-1-oxa-3,8-diazaspiro[4.5]decan-3-yl)benzenesulfonic acid] | 4.6 |
| CCOc1cc(-c2ccc(F)cc2)c(C2CC2)cc1CN1CCC2(CC1)CC(=O)N(c1ccc(S(=O)(=O)O)cc1)C2 [Compound 2, 4-(8-((2-cyclopropyl-5-ethoxy-4′-fluoro-[1,1′-biphenyl]-4-yl)methyl)-3-oxo-2,8-diazaspiro[4.5]decan-2-yl)benzenesulfonic acid] | 2.1 |
